According to the NIST ThermoML archive (doi:10.1021/je800416y):
Numbers after ± are expanded uncertainties.

Details: 101.33 kPa, Liquid

## CN(CCO)CCO [N-methyldiethanolamine]
298.15 K
  mass density: 1038.22 ± 1.2 kg/m3
303.15 K
  mass density: 1034.49 ± 1.1 kg/m3
308.15 K
  mass density: 1030.75 ± 1.1 kg/m3
313.15 K
  mass density: 1026.99 ± 1.1 kg/m3
318.15 K
  mass density: 1023.25 ± 1 kg/m3
323.15 K
  mass density: 1019.47 ± 0.98 kg/m3
328.15 K
  mass density: 1015.64 ± 0.94 kg/m3
333.15 K
  mass density: 1011.8 ± 0.91 kg/m3
338.15 K
  mass density: 1007.92 ± 0.87 kg/m3
